This assay addresses human H4 receptor (Homo sapiens (Human), UniProt Q9H3N8). The assay is described as follows: Binding assay on recombinant human histamine H4 receptor ([3H]histamine competition, SK-N-MC cell membranes). The following applies: membranes harvested with cell harvester; [3H]histamine 10 nM; average of results; read-out: Cell Harvester Ki. The method in brief:
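Scintillation counting of filter-bound [3H]histamine after rapid harvesting on 0.5% PEI-treated GF/C filters with ice-cold Tris/EDTA washes. Receptor source: 30,000 g membrane pellets of SK-N-MC cells stably or transiently expressing human H4. Values shown as '>' are the top concentration tested.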

Sequence of human H4 receptor (Q9H3N8 whole entry): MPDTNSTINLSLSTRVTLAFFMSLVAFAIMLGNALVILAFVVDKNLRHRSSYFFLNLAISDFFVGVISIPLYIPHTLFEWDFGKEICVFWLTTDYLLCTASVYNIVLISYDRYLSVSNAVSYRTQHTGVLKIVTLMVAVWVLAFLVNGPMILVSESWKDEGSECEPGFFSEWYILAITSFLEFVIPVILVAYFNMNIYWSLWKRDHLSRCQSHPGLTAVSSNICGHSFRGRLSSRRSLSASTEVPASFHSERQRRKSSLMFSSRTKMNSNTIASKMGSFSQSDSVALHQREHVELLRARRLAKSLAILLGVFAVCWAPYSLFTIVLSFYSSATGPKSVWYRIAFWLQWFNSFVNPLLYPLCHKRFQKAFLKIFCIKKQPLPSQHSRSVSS

On to `COCCNc1cc(N2CCN(C)CC2)ccn1` [Example 239, N-(2-Methoxyethyl)-4-(4-methylpiperazin-1-yl)pyridin-2-amine], for which the Ki is 701 nM.

Consider `CN[C@@H]1CCN(c2ccnc(NCC(C)(C)O)c2)C1` [Example 240, 2-Methyl-1-({4-[(3R)-3-(methylamino)pyrrolidin-1-yl]pyridin-2-yl}amino)propan-2-ol], for which the Ki worked out at 54.3 nM. Take `CN1CCN(c2ccnc(NCC(C)(C)O)c2)CC1` [Example 241, 2-Methyl-1-{[4-(4-methylpiperazin-1-yl)pyridin-2-yl]amino}propan-2-ol]: the Ki was determined as 837 nM. With `CN[C@H]1CCN(c2ccnc(NCC(C)(C)O)c2)C1` [Example 242, 2-Methyl-1-({4-[(3S)-3-(methylamino)pyrrolidin-1 yl]pyridin-2-yl}amino)propan-2-ol], the Ki is greater than 10000 nM.

As to `CCCCNc1cc(N2CC[C@H](NC)C2)ccn1` [Example 243], the Ki was 167 nM.

Regarding `CN1CCN(c2ccnc(NCc3ccccn3)c2)CC1` [Example 244, 4-(4-Methylpiperazin-1-yl)-N-(pyridin-2-ylmethyl)pyridin-2-amine], the Ki is 3880 nM. Regarding `CN[C@H]1CCN(c2ccnc(NCCc3ccccc3)c2)C1` [Example 245, 4-[(3S)-3-(Methylamino)pyrrolidin-1-yl]-N-(2-phenylethyl)pyridin-2-amine], the Ki was determined as 228 nM. As to `CN[C@H]1CCN(c2ccnc(NCc3ccc(F)cc3)c2)C1` [Example 246, N-(4-Fluorobenzyl)-4-[(3S)-3-(methylamino)pyrrolidin-1-yl]pyridin-2-amine], the Ki was determined as 395 nM. In the case of `CN[C@@H]1CCN(c2ccnc(N[C@H]3C[C@H]4CC[C@]3(C)C4(C)C)c2)C1` [Example 247, 4-[(3R)-3-(Methylamino)pyrrolidin-1-yl]-N-[(1R,2S,4R)-1,7,7-trimethylbicyclo[2.2.1]hept-2-yl]pyridin-2-amine], the Ki turned out to be 1.41 nM. Consider `CN1CCN(c2ccnc(NCc3ccc(F)cc3)c2)CC1` [Example 249, N-(4-Fluorobenzyl)-4-(4-methylpiperazin-1-yl)pyridin-2-amine], for which the Ki turned out to be 257 nM. Regarding `CN1CCN(c2ccnc(NCCc3ccccc3)c2)CC1` [Example 250, 4-(4-Methylpiperazin-1-yl)-N-(2-phenylethyl)pyridin-2-amine], the Ki was 659 nM.

With `CN[C@H]1CCN(c2ccnc(NCC34CC5CC(CC(C5)C3)C4)c2)C1` [Example 251, Adamantan-1-ylmethyl-[4-(3S)-(3-methylamino-pyrrolidin-1-yl)-pyridin-2-yl]amine], the inhibitory constant (Ki) was found to be 79.4 nM.

Take `CN1CCN(c2ccnc(N[C@H]3C[C@H]4CC[C@]3(C)C4(C)C)c2)CC1` [Example 252, 4-(4-Methylpiperazin-1-yl)-N-[(1R,2S,4R)-1,7,7-trimethylbicyclo[2.2.1]hept-2-yl]pyridin-2-amine]: the Ki was 190 nM. As to `CN[C@@H]1CCN(c2ccnc(NCC3CC4CCC3C4)c2)C1` (stereo partly drawn) [Example 253, N-(Bicyclo[2.21]hept-2-ylmethyl)-4-[(3R)-3-(methylamino)pyrrolidin-1-yl]pyridin-2-amine], the Ki came out at 4.33 nM.

As for `CCCCNc1cc(N2CC[C@@H](N)C2)ccn1` [Example 254, 4-[(3R)-3-Aminopyrrolidin-1-yl]-N-butylpyridin-2-amine], the Ki is 27.5 nM.

Consider `CN1CCN(c2ccnc(NC[C@]34C[C@H]5C[C@H](C[C@H](C5)C3)C4)c2)CC1` [Example 255, Adamantan-1-ylmethyl-[4-(4-methyl-piperazin-1-yl)-pyridin-2-yl]amine], for which the Ki worked out at 1940 nM.

Take `c1cc(N2C[C@H]3CCN[C@H]3C2)cc(NCC2CCCCC2)n1` [Example 256]: the Ki came out at 617 nM. `N[C@H]1CCN(c2ccnc(NCc3ccccn3)c2)C1` [Example 258, 4-[(3S)-3-Aminopyrrolidin-1-yl]-N-(pyridin-2-ylmethyl)pyridin-2-amine]: the inhibitory constant (Ki) was greater than 10000 nM. Next, `CNC1CN(c2ccnc(NC3CCCC3)c2)C1` [Example 259, N-Cyclopentyl-4-[3-(methylamino)azetidin-1-yl]pyridin-2-amine]: 5.15 nM. The value for `c1ccc(CNc2cc(N3CCNCC3)ccn2)nc1` [Example 260, 4-Piperazin-1-yl-N-(pyridin-2-ylmethyl)pyridin-2-amine] was greater than 10000 nM; that for `c1cc(N2C[C@H]3CCN[C@H]3C2)cc(NCC2CCCC2)n1` [Example 261, N-(Cyclopentylmethyl)-4-[(3aR,6aR)-hexahydropyrrolo[3,4-b]pyrrol-5(1H)-yl]pyridin-2-amine] was 3560 nM; that for `c1cc(N2C[C@H]3CCN[C@H]3C2)cc(NC2CCCC2)n1` [Example 262, N-Cyclopentyl-4-[(3aR,6aR)-hexahydropyrrolo[3,4-b]pyrrol-5(1H)-yl]pyridin-2-amine] was 22.1 nM. With `N[C@H]1CCN(c2ccnc(NCc3ccc(F)cc3)c2)C1` [Example 263], the Ki was 3090 nM. Next, `COCCNc1cc(N2CC[C@H](N)C2)ccn1` [Example 264, 4-[(3S)-3-Aminopyrrolidin-1-yl]-N-(2-methoxyethyl)pyridin-2-amine]: greater than 10000 nM; `c1cc(N2CCCNCC2)cc(NC2CC3CCC2C3)n1` (stereo not drawn) [Example 265, N-Bicyclo[2.2.1]hept-2-yl-4-(1,4-diazepan-1-yl)pyridin-2-amine]: 1.71 nM; `c1cc(N2C[C@H]3CCN[C@H]3C2)cc(NC2C3CC4CC(C3)CC2C4)n1` (stereo partly drawn) [Example 266, Adamantan-2-yl-[4-(3aR,6aR)-(hexahydro-pyrrolo[3,4-b]pyrrol-5-yl)pyridin-2-yl]-amine]: 14.5 nM. Consider `N[C@H]1CCN(c2ccnc(NCc3ccccc3)c2)C1` [Example 267, 4-[(3S)-3-Aminopyrrolidin-1-yl]-N-benzylpyridin-2-amine], for which the Ki was determined as 1530 nM.

Take `N[C@H]1CCN(c2ccnc(NC3CCCC3)c2)C1` [Example 268, 4-[(3S)-3-Aminopyrrolidin-1-yl]-N-cyclopentylpyridin-2-amine]: the inhibition constant Ki stood at 247 nM.

For the molecule `CC1C(Nc2cc(N3CCNCC3)ccn2)C[C@H]2C[C@@H]1C2(C)C` (stereo partly drawn) [Example 269, 4-Piperazin-1-yl-N-[(1S,5R)-2,6,6-trimethylbicyclo[3.1.1]hept-3-yl]pyridine-2-amine], the Ki was determined as 2100 nM.

Consider `N[C@@H]1CCN(c2ccnc(NC3CC4CCC3C4)c2)C1` (stereo partly drawn) [Example 270, 4-[(3R)-3-Aminopyrrolidin-1-yl]-N-bicyclo[2.2.1]hept-2-ylpyridin-2-amine], for which the Ki worked out at 3.53 nM. Regarding `C[C@@H](Nc1cc(N2C[C@H]3CCN[C@H]3C2)ccn1)C1CCCCC1` [Example 271, N-[(1R)-1-Cyclohexylethyl]-4-[(3aR,6aR)-hexahydropyrrolo[3,4-b]pyrrol-5(1H)-yl]pyridin-2-amine], the Ki stood at 189 nM. Take `CC1C(Nc2cc(N3CC[C@H](N)C3)ccn2)C[C@H]2C[C@@H]1C2(C)C` (stereo partly drawn) [Example 272, 4-[(3S)-3-Aminopyrrolidin-1-yl]-N-[(1S,5R)-2.6.6-trimethylbicyclo[3.1.1]hept-3-yl]pyridin-2-amine]: the Ki came out at 2100 nM.

Take `CC(C)(O)CNc1cc(N2CC[C@H](N)C2)ccn1` [Example 273, 1-({4-[(3S)-3-Aminopyrrolidin-1-yl]pyridin-2-yl}amino)-2-methylpropan-2-ol]: the Ki is 3170 nM.

The values above are taken from US9732087B2, “Diamino-pyridine, pyrimidine, and pyridazine modulators of the histamine H4 receptor” (JANSSEN PHARMACEUTICA NV, priority 2008, dated 2017).
